Source: US9732067B2, “Compounds and methods for activating the apoptotic arm of the unfolded protein response” (University of Kansas, priority 2012, dated 2017)
Several values for one entry are separate records, joined by “and”; a condition that tells them apart may be missing. Identical values can stand only once. Like-named read-outs stand apart in the source and are kept apart here.

What was measured:
[1] = test system: panel of OSCC and ovarian cancer cell lines; assay: Proliferation, panel of OSCC and ovarian cancer cell lines; format: cell-based; settings: 24 hours, 0.15-20 μM; read-out: IC50 values in eight of the ten cell lines
Protocol: (§1) To determine whether ML291 could reduce the proliferation of malignant cells, a panel of OSCC (UMSCC23, A253, HN6, HN12, HN30, H460/T800) and ovarian cancer (RMG-1, TOV112D, A2780 and SKOV3) cell lines, were treated with increasing doses (0.15-20 μM) of ML291 for 24 hours (FIGS. 3A and 3B).

[2] = test system: TOV112D (ovarian); assay: Proliferation, TOV112D; format: cell-based; settings: Homo sapiens, 24 hours
Protocol: as §1

[3] = test system: OSCC; assay: Preliminary combination studies with cisplatin and taxol; format: cell-based
Protocol: To confirm the ability of ML291 to activate UPR-luciferase reporters stably transfected into UMSCC23 and A253 cells and reduce tumor burden, additional xenograft studies are performed with additional animals to permit real-time measurement of UPR activation during drug treatment (bioluminescent imaging). The data presented herein indicate that ML291 can activate the UPR in xenograft tissue at 10 mg/kg. […] Thus, mice are injected IP in the morning with 10-100 mg/kg ML291. Injection in the morning, i.e., when the lights come on in the vivarium and the mice stomachs are most likely to be full, is a technique known to enhance absorption of nitrofurans into the bloodstream (Heinrichs (2001) Behavioural Brain Res. 125:81-88). […] Upon completion of this experiment, control and ML291 treated mice (3 each) undergo complete pathological necropsy to identify gross or histological signs of organ toxicity. Once the degree to which ML291 induces the UPR and reduces xenograft burden is analyzed, additional studies are carried out with combination therapies using standard of care OSCC drugs. […] It is posited that ML291-enforced UPR in the tumor milieu potentiates conventional therapies and might enhance the effects of cisplatin, ifosfamide or taxol.

[4] = Toxicity towards Fa2N-4 immortalized human hepatocytes; format: cell-based; settings: read-out: Toxicity Towards Fa2N-4 Immortalized Human Hepatocytes LC50
[5] = test system: RMG-1 (ovarian); assay: Proliferation, RMG-1; format: cell-based; settings: 24 hours
Protocol: as §1

[6] = test system: HN12; assay: Proliferation, HN12; format: cell-based; settings: 24 hours, average of three experiments
Protocol: as §1

[7] = test system: A2780 (ovarian); assay: Proliferation, A2780; format: cell-based; settings: Homo sapiens, 24 hours
Protocol: as §1

[8] = Aqueous solubility in pION's buffer; format: physicochemical
Description: Solubility was highest at the physiological of pH 7.4.

[9] = Hepatic microsome stability, mouse; format: in vitro ADME
Description: The microsomal stability assay is commonly used to rank compounds according to their metabolic stability. This assay addresses the pharmacologic question of how long the parent compound will remain circulating in plasma within the body.

[10] = Stability in PBS at room temperature; format: physicochemical; settings: 48 hours, 23° C.
Protocol: Stability was measured under two distinct conditions with ML291: at room temperature (23° C.) in PBS (no antioxidants or other protectants and DMSO concentration below 0.1%) and with 50% acetonitrile added to account for challenges with solubility of the compound in PBS alone. Stability was determined as the loss of compound with time over a 48 hour period with a minimum of 6 time points.

[11] = test system: HN6; assay: Proliferation, HN6; format: cell-based; settings: HN-6, 24 hours, average of three experiments
Protocol: as §1

[12] = test system: PERK-eIF2α-CHOP (apoptotic) arm of the Unfolded Protein Response pathway; assay: UPR-CHOP primary assay (CHO-CHOP luciferase reporter); format: cell-based
Protocol: The purpose of this assay was to detect activators of the PERK-eIF2α-CHOP (apoptotic) arm of the Unfolded Protein Response pathway.
Cells were passaged twice a week. […] Once the cells had reached confluency, old medium was aspirated and the flasks were washed with 20 mL DPBS per T225 flask. Cells were left in DPBS for about 30 seconds. Subsequently, 6.5 mL 0.05% trypsin solution was added into the flask and the flask was rocked gently so that the solution covered the surface. The cells were allowed to detach by incubating at room temperature for about 4 minutes. The flask was washed with […] fresh growth media and the cell suspension was collected in a 50 mL sterile conical tube. The collected cells were centrifuged at 900 rpm for 5 minutes and re-suspended in 1 mL fresh growth media. An additional 19 mL of growth media was added and the tube was mixed gently. The cell suspension was filtered with a cell strainer and the cells were counted.
As above, cells were grown to confluency, washed, and detached with 5 mL trypsin solution for 4 minutes at room temperature. The flask was washed with 25 mL fresh growth media and the cell suspension was collected in a 50 mL sterile conical tube. The cells were centrifuged at 500 rpm for 10 minutes and re-suspended carefully in 1 mL fresh assay medium. An additional 19 mL of assay media was added the cells were mixed gently. The cell suspension was filtered with a cell strainer and the number of cells was counted. Cell density was adjusted to 1.0×10^5 cells/mL in medium.
On day 1, cell suspensions were prepared and 500 cells in 5 μL of assay media were plated in the wells of columns 1-48 of a 1536-well assay plate. The plates were centrifuged at 500 rpm for 1 minute and subsequently incubated at 37° C., 100% relative humidity, 5% CO2 for 16-18 hours.
[…] […] The plates were centrifuged at 1000 rpm for 1 minute and subsequently incubated at 37° C., 100% relative humidity, 5% CO2 for 6 hours.
Following the 6-hour incubation the plate was incubated for 10 minutes at room temperature and 3 μL of STEADY-GLO was added to each well. The plates were centrifuged at 2000 rpm for 2 minutes and subsequently incubated at room temperature for 10 minutes. Luminescence was measured with a luminometer.
The MLPCN library of approximately 330,000 compounds was tested in the UPR-CHOP primary screen utilizing a luciferase-based reporter expressed in a CHO cell line to identify activators of the CHOP apoptotic pathway. […]

[13] = Plasma protein binding, mouse; format: in vitro ADME
Description: Plasma protein binding is a measure of a drug's efficiency to bind to the proteins within blood plasma. The less bound a drug is, the more efficiently it can traverse cell membranes or diffuse. Highly plasma protein bound drugs are confined to the vascular space, thereby having a relatively low volume of distribution. In contrast, drugs that remain largely unbound in plasma are generally available for distribution to other organs and tissues. ML291 was highly plasma protein bound to human plasma proteins (>99%), though it is somewhat less tightly bound to mouse plasma proteins (˜84%).

With `O=C(Nc1ccc(S(=O)(=O)N2CCC(Cl)CC2)cc1)c1ccc([N+](=O)[O-])o1` [ML291, N-(4-((4-chloropiperidin-1-yl)sulfonyl)phenyl)-5-nitrofuran-2-carboxamide] the IC50 [1] was 1.6 to 18.9 µM, the IC50 [2] was 6.59 µM and the “effect of combination with cisplatin and taxol” value [3] was “reduced IC50 values”. It also gave a CC50 [4] of 11.4 µM, an IC50 [5] greater than 20 µM and an IC50 [6] of 7.17 ± 0.69 µM. The IC50 [7] was 2.16 µM, the “solubility over its EC50” value ([8]; EC50 762 nM) was 11-13 fold and the solubility ([8]; aqueous buffer (pION's buffer), aqueous buffer, pH range of 5.2-7.4, read-out: solubility in aqueous buffers) was 8.7 µM to 9.7 µM and 3.6 µg/mL to 4 µg/mL. The “Aqueous Solubility in pION's buffer” value ([8]; pH 5.0) was 3.6 μg/mL and 8.7 μM, the “Aqueous Solubility in pION's buffer” value ([8]; pH 6.2) was 3.8 μg/mL and 9.2 μM and the “Aqueous Solubility in pION's buffer” value ([8]; pH 7.4) was 4.0 μg/mL and 9.7 μM. For the same compound, the “Hepatic Microsome Stability (% Remaining after 1 hour @ 37° C.)” value ([9]; Mouse) was 0.02%, the “metabolism in mouse liver homogenates” value ([9]; within 1 hour) was “almost completely metabolized” and the “percent remaining compound in PBS with 50% acetonitrile” value [10] was 100%. The “percent remaining compound in PBS” value ([10]; no additives) was 11.44%, the IC50 [11] was greater than 20 µM and the “selectivity (XBP1 over CHOP)” value [12] was greater than 108.1 fold. For the same compound, the EC50 ([12]; CHO-K1, text, read-out: EC50 in the CHO-K1 cell reporter assays (CHOP)) was 0.762 µM, the EC50 ([12]; Cricetulus griseus, Table 1, mean of replicates, AID602434, read-out: UPR CHOP Assay Potency EC50) was 0.74 µM and the EC50 ([12]; Cricetulus griseus, read-out: CHOP EC50) was 0.74 µM. The “Selectivity (XBP1/CHOP) x-fold” value ([12]; Table 1) was greater than 108.1 x-fold, the EC50 ([12]; Table 9, average of four runs, F12 HAMs, 10% hi-FBS, read-out: EC50 UPR CHOP Assay) was 0.78 µM and the EC50 ([12]; read-out: EC50 in the CHO-K1 cell reporter assays (CHOP)) was 0.76 µM. For the same compound, the “bound to mouse plasma proteins” value [13] was roughly 84%, the fraction unbound at 1 µM ([13]; plasma, Mouse, 1 μM, read-out: Plasma Protein Binding (% Bound) (converted)) was 0.155 and the fraction unbound at 10 µM ([13]; plasma, Mouse, 10 μM, read-out: Plasma Protein Binding (% Bound) (converted)) was 0.157.
